# According to ChEMBL document CHEMBL4706484, “Apigenin-rivastigmine hybrids as multi-target-directed liagnds for the treatment of Alzheimer's disease” (Eur J Med Chem, 2020):
# Activity calls are given as the source filed them. No cut-off for these calls is given here.
# How the values were obtained:
# [1] = Acute toxicity in 2 dpf zebrafish assessed as body shape at 1.39 to 12.5 ug/ml measured after 3 days; design: species or system Danio rerio; settings: in vivo, 72 h, dose 1.39-12.5 µg/ml, time 3 day
# [2] = species: Danio rerio; experiment: Protection against amyloid beta (1 to 40 residues)-induced vascular injury in transgenic zebrafish assessed as vascular injury rate at 1.4 ug/ml (reference value: 73.3 %); format: functional; settings: dose 1.4 µg/ml
# [3] = Acute toxicity in 2 dpf zebrafish assessed as abnormal tail at 1.39 to 12.5 ug/ml measured after 3 days; design: species or system Danio rerio; settings: in vivo, 72 h, dose 1.39-12.5 µg/ml, time 3 day
# [4] = Acute toxicity in 2 dpf zebrafish assessed as effect on liver at 1.39 to 12.5 ug/ml measured after 3 days; design: species or system Danio rerio; settings: in vivo, 72 h, dose 1.39-12.5 µg/ml, time 3 day
# [5] = tested on: Mus musculus; experiment: Reversal of scopolamine-induced Kunming mouse model of memory impairment assessed as spontaneous alteration at 5 mg/kg by Y-maze test; format: functional, organism-based
# [6] = species: Danio rerio; experiment: Antialzheimer activity against 3 dpf zebrafish model of AlCl3-induced AD assessed as motility by measuring change in speed at 4.2 ug/ml (reference value: 1.05 mm/s); format: functional; settings: dose 4.2 µg/ml
# [7] = target: Butyrylcholinesterase (Rattus norvegicus, UniProt Q9JKC1); experiment: Inhibition of rat serum BChE using acetylthiocholine iodide as substrate measured after 15 mins by Ellman's method; format: cell-free
# Sequence of Butyrylcholinesterase (Q9JKC1 whole entry): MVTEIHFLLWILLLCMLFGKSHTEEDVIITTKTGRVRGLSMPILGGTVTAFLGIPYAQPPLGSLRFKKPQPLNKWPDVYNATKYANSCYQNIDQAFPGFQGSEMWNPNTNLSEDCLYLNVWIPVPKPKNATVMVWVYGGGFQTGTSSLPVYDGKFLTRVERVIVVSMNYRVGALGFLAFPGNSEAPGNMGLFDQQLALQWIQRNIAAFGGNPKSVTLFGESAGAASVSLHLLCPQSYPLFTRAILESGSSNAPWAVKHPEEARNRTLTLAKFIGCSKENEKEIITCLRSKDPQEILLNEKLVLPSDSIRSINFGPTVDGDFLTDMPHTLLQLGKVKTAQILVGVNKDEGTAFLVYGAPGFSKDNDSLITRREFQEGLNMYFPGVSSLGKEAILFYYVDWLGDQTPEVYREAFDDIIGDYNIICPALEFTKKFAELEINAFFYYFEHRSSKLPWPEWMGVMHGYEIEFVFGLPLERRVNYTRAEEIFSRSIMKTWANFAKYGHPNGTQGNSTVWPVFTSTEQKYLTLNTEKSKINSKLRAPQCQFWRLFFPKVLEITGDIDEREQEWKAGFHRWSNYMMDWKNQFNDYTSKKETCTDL
# [8] = species: Danio rerio; experiment: Antialzheimer activity against 3 dpf zebrafish model of AlCl3-induced AD assessed as motility by measuring change in speed at 1.4 ug/ml (reference value: 1.05 mm/s); format: functional; settings: dose 1.4 µg/ml
# [9] = target: T1, Acetylcholinesterase (Rattus norvegicus, UniProt P37136); experiment: Inhibition of rat cortex AChE using acetylthiocholine iodide as substrate measured after 15 mins by Ellman's method; format: tissue-based
# T1 sequence (P37136 whole entry): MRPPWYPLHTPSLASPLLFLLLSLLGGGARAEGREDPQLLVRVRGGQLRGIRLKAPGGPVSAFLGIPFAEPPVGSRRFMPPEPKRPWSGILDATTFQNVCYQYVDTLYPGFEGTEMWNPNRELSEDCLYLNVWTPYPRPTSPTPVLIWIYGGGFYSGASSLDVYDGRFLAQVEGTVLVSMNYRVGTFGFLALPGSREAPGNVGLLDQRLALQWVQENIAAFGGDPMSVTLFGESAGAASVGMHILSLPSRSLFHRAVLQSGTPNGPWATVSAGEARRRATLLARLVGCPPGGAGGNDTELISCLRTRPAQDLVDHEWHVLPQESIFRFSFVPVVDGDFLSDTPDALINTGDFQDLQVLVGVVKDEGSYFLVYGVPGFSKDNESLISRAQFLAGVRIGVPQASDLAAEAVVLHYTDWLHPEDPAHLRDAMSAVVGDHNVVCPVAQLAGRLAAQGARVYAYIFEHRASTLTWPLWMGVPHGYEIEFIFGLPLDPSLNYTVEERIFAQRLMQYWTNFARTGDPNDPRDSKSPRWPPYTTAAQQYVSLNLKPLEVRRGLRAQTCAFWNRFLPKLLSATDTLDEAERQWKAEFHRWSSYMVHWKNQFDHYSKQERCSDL
# [10] = tested on: PC-12; experiment: Neuroprotective activity against H2O2-induced cell injury in rat PC-12 cells assessed as increase in cell viability causing decrease in LDH content preincubated for 2 hrs followed by H2O2 addition and measured after 24 hrs by LDH assay; format: functional, cell-based; settings: dose 5-10 µM, time 26.0 hrs
# [11] = target: Cholinesterase (Homo sapiens, UniProt P06276); experiment: Inhibition of human serum BChE using acetylthiocholine iodide as substrate measured after 15 mins by Ellman's method; format: cell-free
# Sequence of Cholinesterase (P06276 whole entry): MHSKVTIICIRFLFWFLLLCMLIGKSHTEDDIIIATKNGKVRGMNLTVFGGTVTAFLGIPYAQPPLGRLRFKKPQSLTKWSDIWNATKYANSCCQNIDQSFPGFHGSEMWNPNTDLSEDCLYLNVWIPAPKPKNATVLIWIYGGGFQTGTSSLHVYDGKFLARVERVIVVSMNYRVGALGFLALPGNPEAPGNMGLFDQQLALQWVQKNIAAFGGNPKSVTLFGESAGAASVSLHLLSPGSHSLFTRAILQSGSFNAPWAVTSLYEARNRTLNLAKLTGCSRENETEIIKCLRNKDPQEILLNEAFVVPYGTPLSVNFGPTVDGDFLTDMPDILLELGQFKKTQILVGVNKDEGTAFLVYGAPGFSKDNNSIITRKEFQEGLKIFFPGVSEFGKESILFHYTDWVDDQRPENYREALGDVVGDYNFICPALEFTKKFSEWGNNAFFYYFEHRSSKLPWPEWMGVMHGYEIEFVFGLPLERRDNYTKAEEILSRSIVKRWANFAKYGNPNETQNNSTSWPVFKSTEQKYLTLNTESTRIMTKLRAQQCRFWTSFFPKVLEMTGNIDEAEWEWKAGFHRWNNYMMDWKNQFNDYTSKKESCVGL
# [12] = species: Danio rerio; experiment: Antialzheimer activity against 3 dpf zebrafish model of AlCl3-induced AD assessed as motility by measuring efficacy on speed change at 4.2 ug/ml relative to control; format: functional; settings: dose 4.2 µg/ml
# [13] = Acute toxicity in 2 dpf zebrafish assessed as precipitation at 20 ug/ml measured after 3 days; design: species or system Danio rerio; settings: in vivo, 72 h, dose 20 µg/ml, time 3 day
# [14] = Acute toxicity in 2 dpf zebrafish assessed as bradycardia at 1.39 to 12.5 ug/ml measured after 3 days; design: species or system Danio rerio; settings: in vivo, 72 h, dose 1.39-12.5 µg/ml, time 3 day
# [15] = Drug metabolism in rat liver microsomes assessed as metabolite formation by UPLC-MS/MS analysis; format: ADME, Microsome
# [16] = Acute toxicity in Kunming mouse at 1000 mg/kg; format: organism-based; settings: in vivo
# [17] = Acute toxicity in 2 dpf zebrafish assessed as dark brown liver at 1.39 to 12.5 ug/ml measured after 3 days; design: species or system Danio rerio; settings: in vivo, 72 h, dose 1.39-12.5 µg/ml, time 3 day
# [18] = species: Danio rerio; experiment: Antialzheimer activity against 3 dpf zebrafish model of AlCl3-induced AD assessed as efficacy on motility distance at 12.5 ug/ml relative to control; format: functional; settings: dose 12.5 µg/ml
# [19] = Acute toxicity in 2 dpf zebrafish assessed as yolk sac absorption delay at 12.5 ug/ml measured after 3 days relative to control; design: species or system Danio rerio; settings: in vivo, 72 h, at 12.5 µg/mL, time 3 day
# [20] = Acute toxicity in Kunming mouse assessed as hypokinesia at 2000 mg/kg; format: organism-based; settings: in vivo
# [21] = Inhibition of copper-induced amyloid beta (1 to 42) (unknown origin) aggregation measured after 24 hrs by TEM analysis
# [22] = species: Danio rerio; experiment: Antialzheimer activity against 3 dpf zebrafish model of AlCl3-induced AD assessed as increase in motility distance; format: functional, organism-based
# [23] = Cytotoxicity against human L02 cells assessed as cell viability at 12.5 uM measured after 72 hrs by MTT assay relative to control; format: cell-based; settings: read-out: Activity
# [24] = Acute toxicity in 2 dpf zebrafish assessed as small or misshapen eyes at 1.39 to 12.5 ug/ml measured after 3 days; design: species or system Danio rerio; settings: in vivo, 72 h, dose 1.39-12.5 µg/ml, time 3 day
# [25] = Toxicity in 2 dpf zebrafish at 1.39 ug/ml measured after 3 days; design: species or system Danio rerio; settings: in vivo, 72 h, dose 1.39 µg/ml, time 3 day
# [26] = Acute toxicity in Kunming mouse assessed as abnormal behavior at 1000 mg/kg; format: organism-based; settings: in vivo
structure (smiles),measurement,setting,value
CCN(C)C(=O)Oc1ccc(-c2cc(=O)c3c(O)cc(OC(=O)N(C)CC)cc3o2)cc1,Activity,[1],Non-Toxic
same,Activity,[2],60%
same,Activity,[3],Non-Toxic
same,Activity,[4],Non-Toxic
same,Activity,[5],inactive
same,Activity,[6],1.98 millimeter/sec
same,IC50,[7],12.1 µM
same,Activity,[8],1.8 millimeter/sec
same,IC50,[9],4.7 µM
same,Activity,[10],Dose-dependent effect
same,IC50,[11],16.1 µM
same,Efficacy,[12],72%
same,Activity,[13],Toxic
same,Activity,[14],Non-Toxic
same,Drug metabolism,[15],Metabolite_Detected
same,Activity,[16],Non-Toxic
same,Activity,[17],Non-Toxic
same,Efficacy,[18],73%
same,Activity,[19],93.3%
same,Activity,[20],Toxic
same,inhibition,[21],Active
same,Activity,[22],Dose-dependent effect
same,"viability at 72 h, 12.5 µM",[23],95.6%
same,Activity,[24],Non-Toxic
same,Activity,[25],Non-Toxic
same,Activity,[26],Non-Toxic
